Reference: ChEMBL document CHEMBL4196103, “Bioactive Sesquiterpenoids from the Peeled Stems of Syringa pinnatifolia” (J Nat Prod, 2018)
Calls of active or inactive are those of the source. The calls are words filed in the database; no cut-off is given here.

Key:
RAW264.7 [1] = assay: Antiinflammatory activity against mouse RAW264.7 cells assessed as inhibition of LPS-induced NO production at 80 uM preincubated for 2 hrs followed by LPS stimulation measured after 24 hrs by Griess reagent based assay relative to control; assay type: functional
RAW264.7 [2] = assay: Antiinflammatory activity against mouse RAW264.7 cells assessed as inhibition of LPS-induced TNFalpha production preincubated for 1 hr followed by LPS stimulation measured after 24 hrs by ELISA; assay type: functional, cell-based
Mus musculus = species: Mus musculus; assay: Protection against hypoxia-induced injury in […] cells assessed as increase in cell viability at 40 uM incubated for 20 hrs under hypoxia condition by CCK-8 assay; assay type: functional, cell-based
RAW264.7 [3] = assay: Antiinflammatory activity against mouse RAW264.7 cells assessed as inhibition of LPS-induced NO production preincubated for 2 hrs followed by LPS stimulation measured after 24 hrs by Griess reagent based assay; assay type: functional, cell-based
RAW264.7 [4] = assay: Antiinflammatory activity against mouse RAW264.7 cells assessed as inhibition of LPS-induced IL-6 production preincubated for 1 hr followed by LPS stimulation measured after 24 hrs by ELISA; assay type: functional, cell-based
[5] = Cytotoxicity against […] cells assessed as decrease in cell viability at 20 uM incubated for 24 hrs by CCK-8 assay; assay type: cell-based

| SMILES | inhibition at 80 µM (RAW264.7 [1]) [%] | inhibition (RAW264.7 [2]) | IC50 (RAW264.7 [3]) [µM] | inhibition (RAW264.7 [4]) | further results |
| --- | --- | --- | --- | --- | --- |
| C/C1=C\C[C@H](O)[C@]2(C)O[C@H]2CC(C)(C)/C=C/C1=O | < 50 |  |  |  |  |
| CO[C@@H]1CC/C(C)=C/CC(C)(C)/C=C/C(=O)[C@H]1CO |  | Dose-dependent effect | 27.2 | Dose-dependent effect | Activity (Mus musculus): Active |
| C/C1=C\CC[C@@]2(C)O[C@@H]2CC(C)(C)/C=C/C1=O [ZERUMBONE EPOXIDE] |  | Dose-dependent effect | 22.3 | Dose-dependent effect |  |
| CO[C@@H]1CC[C@@]2(C)O[C@@H]2CC(C)(C)/C=C/C(=O)[C@@H]1C | < 50 |  |  |  |  |
| CCC(=O)/C=C/C(C)(C)C/C=C(\C)CCC=O | < 50 |  |  |  |  |
| CC1(C)C/C=C(/C=O)CC[C@H]2[C@H]1CC(=O)[C@]2(C)O | < 50 |  |  |  |  |
| COC1CC/C(C)=C/CC(C)(C)/C=C/C(=O)C1CO (centres undefined) |  | Dose-dependent effect | 18.1 | Dose-dependent effect | Activity (Mus musculus): Active |
| C/C1=C\CC(C)(C)/C=C/[C@H](O)[C@H](C)CCC1 | < 50 |  |  |  |  |
| C/C1=C\CC(C)(C)/C=C/C(=O)[C@H](CO)CCC1 |  | Dose-dependent effect | 33.1 | Dose-dependent effect |  |
| C/C1=C\CC(C)(C)/C=C/C(=O)[C@@H](CO)CCC1 |  | Dose-dependent effect | 70.6 | Dose-dependent effect |  |
| C=C1C(=O)C/C=C(\C)[C@@H](O)C[C@@H]2[C@@H]1CC2(C)C | < 50 |  |  |  |  |
| CC1(C)C/C=C(/C=O)CC[C@@H]2[C@@H]1CC(=O)[C@@]2(C)O | < 50 |  |  |  |  |
| COc1ccc2c(c1)c(CC(=O)O)c(C)n2C(=O)c1ccc(Cl)cc1 [INDOMETHACIN] |  |  | 33.6 |  |  |
| C/C1=C\CC(C)(C)/C=C/C(=O)[C@@H](C)[C@@H](O)CC1 | < 50 |  |  |  |  |
| C/C1=C\CC[C@@]2(C)O[C@@H]2[C@@H](O)C(C)(C)/C=C/C1=O | < 50 |  |  |  |  |
| C/C1=C\CC(C)(C)/C=C/C(=O)/C(CO)=C/CC1 |  |  |  |  | Activity [5]: Toxic |
| C=C1CC[C@H](O)[C@H](C)C(=O)C[C@@H]2[C@@H]1CC2(C)C | < 50 |  |  |  |  |
| C=C1CC[C@H]2O[C@]2(C)[C@@H](O)C[C@@H]2[C@@H]1CC2(C)C [SUBEROSOL A] | < 50 |  |  |  |  |
| CO[C@H]1CC[C@]2(C)O[C@H]2CC(C)(C)/C=C/C(=O)[C@H]1C | < 50 |  |  |  |  |
| C/C1=C\CC(C)(C)/C=C/C(=O)[C@H](C)[C@H](O)CC1 | < 50 |  |  |  |  |
| CO[C@H]1CC/C(C)=C/CC(C)(C)/C=C/C(=O)[C@@H]1CO |  | Dose-dependent effect | 41.4 | Dose-dependent effect |  |
| C/C1=C\CC(C)(C)/C=C/C(=O)/C(C)=C/CC1 [ZERUMBONE] |  | Dose-dependent effect | 13.6 | Dose-dependent effect | Activity (Mus musculus): Active |
